In US12338236B2, “Benzoisothiazole and benzoisoxazole compounds for the treatment of mental disorders” (SUVEN LIFE SCIENCES LIMITED, priority 2022, dated 2025):
Counter-ions that a name gives are not always drawn.

Legend:
[1] = target: T1, human dopamine D2s receptor (Homo sapiens, UniProt P14416); experiment: Determination of Ki values at D2S receptor ([3H]-Raclopride radioligand binding); conditions: hD2 (D2S), CHO-K1, [3H]-Raclopride 4 nM; read-out: Ki D2
T1 construct: expressed in transfected cells; host or cells: CHO-K1
T1 sequence (P14416 1-414 isoform P14416-2): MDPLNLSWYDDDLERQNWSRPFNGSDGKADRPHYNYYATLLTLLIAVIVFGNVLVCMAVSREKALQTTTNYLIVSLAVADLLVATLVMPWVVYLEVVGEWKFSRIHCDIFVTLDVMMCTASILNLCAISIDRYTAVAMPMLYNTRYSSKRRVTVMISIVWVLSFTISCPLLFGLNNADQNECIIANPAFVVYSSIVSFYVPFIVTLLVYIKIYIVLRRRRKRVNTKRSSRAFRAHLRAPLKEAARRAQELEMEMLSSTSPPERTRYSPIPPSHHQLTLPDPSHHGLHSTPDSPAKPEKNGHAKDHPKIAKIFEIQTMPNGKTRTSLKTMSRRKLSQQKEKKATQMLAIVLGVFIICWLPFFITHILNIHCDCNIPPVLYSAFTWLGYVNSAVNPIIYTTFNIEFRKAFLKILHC
Description: Example-45: Determination of Ki Values at D2S Receptor
• Receptor source: Recombinant mammalian cells (CHO-K1) • Radioligand: [^3H]-Raclopride (80.8 Ci/mmol) • Final ligand concentration: 4 nM • Non-specific determinant: 0.1 mM Haloperidol • Reference compound: Haloperidol • Positive control: Haloperidol Incubation conditions: Reactions were carried out in buffer with pH 7.4 containing 50 mM Tris-HCl, 120 mM NaCl, 5 mM KCl, 5 mM MgCl2, 1 mM EDTA for 2 h at RT. The reaction was terminated by rapid vacuum filtration onto the glass fiber filters. Radioactivity trapped onto the filters was determined and compared to the control values in order to ascertain any interactions of the test compound(s) with cloned human dopamine D2s receptor binding site.

[2] = target: T2, human histamine H1 receptor (Homo sapiens, UniProt P35367); experiment: Determination of Ki values at histamine H1 receptor ([3H]-Pyrilamine SPA binding); conditions: hH1, CHO-K1, [3H]-Pyrilamine 2 nM
T2 construct: expressed in transfected cells; host or cells: CHO-K1
T2 sequence (P35367 whole entry): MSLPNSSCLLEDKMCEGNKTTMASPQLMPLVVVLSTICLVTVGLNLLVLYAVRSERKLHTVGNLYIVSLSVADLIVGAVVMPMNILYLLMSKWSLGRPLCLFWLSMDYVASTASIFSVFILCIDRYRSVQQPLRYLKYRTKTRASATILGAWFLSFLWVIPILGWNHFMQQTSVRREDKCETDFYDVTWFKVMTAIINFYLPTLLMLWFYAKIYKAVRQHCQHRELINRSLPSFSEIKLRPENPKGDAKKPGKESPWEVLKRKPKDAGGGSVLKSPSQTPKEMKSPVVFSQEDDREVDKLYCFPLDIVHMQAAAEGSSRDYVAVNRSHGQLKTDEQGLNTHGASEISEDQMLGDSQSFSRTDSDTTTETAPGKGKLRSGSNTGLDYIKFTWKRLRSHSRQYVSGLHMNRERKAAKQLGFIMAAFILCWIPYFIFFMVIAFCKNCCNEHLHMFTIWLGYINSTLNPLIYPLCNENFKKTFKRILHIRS
Description: Example-48: Determination of Ki values at Histamine H1 receptor
• Receptor source: Recombinant mammalian cells (CHO-K1) • Radioligand: [^3H]-Pyrilamine (20.7 Ci/mmol) • Final ligand concentration: 2 nM • Non-specific determinant: 0.1 mM Pyrilamine • Reference compound: Pyrilamine • Positive control: Pyrilamine Incubation conditions: Reactions were carried out in buffer with pH 7.4 containing 67 mM Tris-HCl and SPA beads (0.1 mg/well) for 1 h at 37° C. Radioactivity proximal to SPA beads was determined by scintillation proximity assay and compared to the control values in order to ascertain any interactions of the test compound(s) with cloned human histamine H1 receptor binding site.

[3] = Rodent pharmacokinetic study; type: in vivo, Male Wistar rats; conditions: male, Wistar, plasma, rat; for bioavailability: oral 3 mg/kg vs intravenous 1 mg/kg, read-out: F (Bioavailability)
Description: Example-49: Rodent Pharmacokinetic Study
Male Wistar rats (250±50 grams) were used as experimental animals. Animals were housed individually in polypropylene cages. Two days prior to study, male Wistar rats were anesthetized with isoflurane for surgical placement of jugular vein catheter. Rats were randomly divided for oral (3 mg/kg and 10 mL/kg as dose volume) and intravenous (1 mg/kg and 2.0 mL/kg as dose volume) dosing (n=3/group) and fasted overnight before oral dosing (p.o.). However, rats allocated to intravenous dosing food and water was provided ad libitum.
Intravenous formulation was prepared by using 5% Pharmasolve+45% Propylene Glycol+50% PEG 400 as vehicle. For Oral, formulation was prepared by using 0.25% Tween 80+99.75% of 1% (w/v) hydroxyethylcellulose solution as a vehicle. The dose formulations were prepared freshly on the day of dosing.
After dosing of animal, each time point a 200 μL of blood sample was collected through the jugular vein and replenished with an equivalent volume of normal saline. Collected blood sample was transferred into a labeled eppendorf tube containing 10 μL of sodium heparin (1000 IU/mL) as an anticoagulant. Typically blood samples were collected at following time points: 0.08, 0.25, 0.5, 1, 2, 4, 6, 8, and 24 h post dose. Blood was centrifuged at 4000 revolutions per minute (rpm) for 10 min. Plasma was separated and stored frozen at −80° C. until analysis. The concentrations of the test compounds were quantified in plasma by qualified LC-MS/MS method using suitable extraction technique in the calibration range around 1-2000 ng/mL in plasma. Study samples were analyzed using calibration samples in the batch and quality control samples spread across the batch.
Pharmacokinetic parameters Cmax, AUC0-t, t1/2, Clearance and Bioavailability (F) were calculated using standard non-compartmental model by using Phoenix WinNonlin 8.1 version Software package.

[4] = Rodent brain penetration study; type: in vivo, Male Wistar rats; conditions: male, Wistar, brain and plasma, po; rat, 3 mg/kg, p.o. @ 1 h; read-out: Rat Brain Penetration (Cbrain/Cplasma)
Description: Example-50: Rodent Brain Penetration Study Male Wistar rats (260±40 g) were used as experimental animals. Three animals were housed in each cage. Animals were given water and food ad libitum throughout the experiment and maintained on a 12 h light/dark cycle. Brain penetration was determined in discrete manner in rats. One day prior to dosing day, male Wistar rats were acclimatized and randomly grouped according to their weight. At each time point (0.50, 1 and 2 h) n=3 animals were used. The test compounds were suitably preformulated and administered orally at (free base equivalent) 3 mg/kg. Blood samples were removed via cardiac puncture by using isoflurane anesthesia. The animals were sacrificed to collect brain tissue. Plasma was separated and brain samples were homogenized and stored frozen at −20° C. until analysis. The concentrations of the test compounds in plasma and brain were determined using LC-MS/MS method. The test compounds were quantified in plasma and brain homogenate by qualified LC-MS/MS method using suitable extraction technique in the calibration range of 1-2000 ng/mL. Study samples were analyzed using calibration samples in the batch and quality control samples spread across the batch. Extent of brain-plasma ratio (Cbrain/Cplasma) was calculated

DOPA levels in striatum = experiment: Reserpine-induced DOPA accumulation; type: in vivo, Male Wistar rats; conditions: rats, 3 mg/kg, p.o., 1.16 h before sacrifice, striatum
Description: Example-53: Reserpine-Induced DOPA Accumulation
Male Wistar rats were pretreated with reserpine (5 mg/kg, s.c.) approximately 18 h before sacrifice and were thereafter fasted until sacrifice. Example-2 (3 mg/kg, p.o.) and (3-(3-hydroxyphenyl)-N-n-propylpiperidine (3-PPP); 30 mg/kg, s.c.) were administered 1.16 h and 1 h, respectively before sacrifice. Haloperidol (0.5 mg/kg, s.c.) was used as a positive control and was dosed 10 min prior to 3-PPP in a separate group of animals. 3-Hydroxybenzylhydrazine dihydrochloride (NSD-1015; 100 mg/kg, s.c.) was then administered 0.5 h before sacrifice. Each rat was sacrificed, brain was removed and then striatum was isolated. The tissue was immediately weighed and homogenized in 0.1 N perchloric acid by means of an ultrasonic disruptor while being cooled in ice. The homogenate was centrifuged at 4° C. at 20,000 g for 15 min. The supernatant was assayed for dihydroxyphenylalanine (DOPA) levels using HPLC-ECD.

Row | Compound | Ki [1] [nM] | Ki [2] [nM] | bioavailability [3] [%] | AUC(0-t) ([3]; intravenous (bolus), 1 mg/kg) [ng·h/mL] | half-life ([3]; intravenous (bolus), 1 mg/kg) [h] | AUC(0-t) ([3]; oral (gavage), 3 mg/kg) [ng·h/mL] | Cmax ([3]; oral (gavage), 3 mg/kg) [ng/mL] | Kp at 1 h [4] | Blockade of the effects of 3-PPP on reserpine induced DOPA accumulation (DOPA levels in striatum) [%]
1 | Cc1nnc(-c2csc(OCCCN3CCN(c4nsc5ccccc45)CC3)n2)o1 [Example-2, 3-(4-{3-[4-(5-Methyl-[1,3,4]oxadiazol-2-yl)-thiazol-2-yloxy]-propyl}-piperazin-1-yl)-benzo[d]isothiazole oxalate] | 0.41 | 9.9 | 46 ± 2 | 575 ± 60.8 | 1.98 ± 0.96 | 795 ± 34.5 | 724 ± 170 | 1.25 | 25
2 | Cc1noc(-c2csc(OCCCN3CCN(c4nsc5ccccc45)CC3)n2)n1 [compound 12, 3-(4-{3-[4-(3-Methyl-[1,2,4]oxadiazol-5-yl)-thiazol-2-yloxy]-propyl}-piperazin-1-yl)-benzo[d]isothiazole oxalate] | 0.4 | 4.1 | 18 ± 4.3 | 467 ± 115 | 2.59 ± 0.49 | 250 ± 60 | 279 ± 59.2 | 2.09 | 
